Assay results from US8110657B2, “Polypeptides and polynucleotides for enhancing immune reactivity to HER-2 protein” (priority 1999, dated 2012).

System: autologous targets
Assay: CTL assay (chromium release)
Type: cell-based
Conditions: two in vitro re-stimulations, IL-2 added

DW2: amino acids 391-399 of the HER-2 protein, T cell epitope (PLQPEQLQV; UniProt P04626 391-399, looked up, fragment)
CTL lysis of targets: able to specifically lyse autologous targets in a dose dependent manner
